Assay [1] deals with T1, HCV1b NS5B polymerase delta 21 (Hepatitis C virus genotype 1b, UniProt P26663).
T1 construct: purified HCV1b NS5B polymerase delta 21
In words: RNA-dependent RNA HCV NS5B (polymerase) assay and IC50 determination. In kind it is biochemical. How it is done:
Example 212—RNA-Dependent RNA HCV NS5B (Polymerase) Assay and IC50 Determination
In vitro RNA-dependent RNA polymerase activity was determined in a reaction mixture (50 μL) containing 50 mM Tris-HCl, pH 7.5, 5 mM MgCl2, 1 mM dithiothreitol, 0.5% Triton® X-100, 10 μM of UTP, 0.1-0.5 μCi of α-^32P UTP (Perkin Elmer Life Sciences), 1 μg of polyA:U16 (Midland Oligo), and 0.6 μg of purified HCV1b NS5B polymerase delta 21. Different concentrations of compounds were added to the reaction mixtures. The reaction was carried out at RT (23° C.) for 60 min and then stopped by the addition of 100 μL of 50 mM EDTA. The reaction mixtures were filtered through either a DE81 membrane or a positively charged nylon membrane, and the membranes were then extensively washed with 30 mM sodium citrate, pH 7.0 and 300 mM NaCl. The radiolabeled RNA products were quantitated using a Storm™ PhosphorImager™ (GE life Sciences). IC50 values were calculated using GraFit 6 and GraphPad Prism 5 from triplicate assays.

A further assay relates to HCV1b replicon. As to the kind of experiment: HCV replicon assay (Huh-7 cell line with HCV1b replicon containing luciferase reporter) and EC50 determination. In kind it is cell-based. The settings on record: Hepatitis C virus, Huh-7 HCV1b replicon luciferase reporter, 72 hr, triplicate. How it is done: Example 213—HCV Replicon Assay and EC50 Determination
The antiviral activity of compounds against hepatitis C virus was determined by a hepatitis C virus replicon reporter cell line developed by Bartenschlager (Lohmann et al., Science 1999, 285:110-113; Bartenschlager et al., Antiviral Res 2003, 60:91-102). This cell-based assay utilized a liver cell carcinoma (Huh-7) cell line stably transformed with an HCV1b replicon containing a luciferase reporter gene. Varied concentrations of compounds were added to the reporter cell line, and further incubated at 37° C. for 72 hr in DMEM supplemented with 10% FCS. The inhibitory effects of experimental compounds or the reference compound, interferon alpha (INFα), on HCV replication were measured by luciferase activity using the Britelite™ plus luminescence reporter gene kit (Perkin Elmer, Shelton, Conn.). The Britelite plus reagent was added to the 96-well plates containing the HCV reporter cells, and luminescence was measured within 15 min using a Wallac 1450 Microbeta® Trilux liquid scintillation counter. EC50 values were calculated using GraFit 6 and GraphPad Prism 5 from triplicate HCV replicon assays.
(In general: A replicon is a self-replicating genome or part of one, used to study replication in cells.)

In general, IC50 refers to the concentration that inhibits the measured activity by half. High values mean a need for much substance, low ones inhibition by little substance. In general, EC50 refers to the concentration that produces a half-maximal response. Read a high EC50 as a less potent agent.

T1 sequence (P26663 2420-2989): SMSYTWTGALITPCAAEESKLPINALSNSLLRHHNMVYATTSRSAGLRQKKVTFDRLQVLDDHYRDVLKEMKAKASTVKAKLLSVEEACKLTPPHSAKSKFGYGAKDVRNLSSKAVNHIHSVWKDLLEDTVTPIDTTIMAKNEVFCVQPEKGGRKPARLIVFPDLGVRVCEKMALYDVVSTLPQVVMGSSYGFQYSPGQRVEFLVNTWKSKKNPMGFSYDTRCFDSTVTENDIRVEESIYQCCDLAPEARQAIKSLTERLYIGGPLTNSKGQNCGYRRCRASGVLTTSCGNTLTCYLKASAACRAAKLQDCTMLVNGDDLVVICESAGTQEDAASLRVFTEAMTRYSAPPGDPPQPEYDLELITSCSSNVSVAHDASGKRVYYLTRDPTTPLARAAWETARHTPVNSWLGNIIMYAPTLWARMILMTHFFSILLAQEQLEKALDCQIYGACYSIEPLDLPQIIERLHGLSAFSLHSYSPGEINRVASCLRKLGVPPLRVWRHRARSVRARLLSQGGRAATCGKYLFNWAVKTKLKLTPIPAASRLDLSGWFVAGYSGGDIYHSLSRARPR

`CC1CCC(C2=C(c3cc(-c4ccc(NC(=O)c5cscn5)cc4)sc3C(=O)O)CN(CC(O)CO)CC2)CC1` (centres unmarked) [Example 190, 3-(1-(2,3-dihydroxypropyl)-4-(4-methylcyclohexyl)-1,2,5,6-tetrahydropyridin-3-yl)-5-(4-(thiazole-4-carboxamido)phenyl)thiophene-2-carboxylic acid] showed an IC50 in assay [1] of less than 3 µM. Also, in the assay with HCV1b replicon (Table 2), the EC50 was less than 3 µM. In assay [1], `CCc1cc(-c2cc(C3=C(C4CCC(C)CC4)CN(C)CC3)c(C(=O)O)s2)ccc1NC(=O)c1cscn1` (centres unmarked) [Example 181, 5-(3-ethyl-4-(thiazole-4-carboxamido)phenyl)-3-(1-methyl-5-(4-methylcyclohexyl)-1,2,3,6-tetrahydropyridin-4-yl)thiophene-2-carboxylic acid] had an IC50 of less than 3 µM. Take `CN1CCC(c2cc(C#CC(C)(C)C)sc2C(=O)O)=C(C2CCCCC2)C1` [Example 211, 3-(5-Cyclohexyl-1-methyl-1,2,3,6-tetrahydro-pyridin-4-yl)-5-(3,3-dimethyl-but-1-ynyl)-thiophene-2-carboxylic acid]: the IC50 in assay [1] is less than 3 µM. The same measure, in the same setting: the figure for `CC1CCC(C2=C(c3cc(-c4ccc(NC(=O)c5cscn5)cc4)sc3C(=O)O)CN(CC3COC(C)(C)O3)CC2)CC1` (centres unmarked) [Example 189, 3-(1-((2,2-dimethyl-1,3-dioxolan-4-yl)methyl)-4-(4-methylcyclohexyl)-1,2,5,6-tetrahydropyridin-3-yl)-5-(4-(thiazole-4-carboxamido)phenyl)thiophene-2-carboxylic acid] is less than 3 µM; for `CCCCCC1=C(c2cc(-c3ccccc3)sc2C(=O)O)CCN(C)C1` [Example 209, 3-(1-Methyl-5-pentyl-1,2,3,6-tetrahydro-pyridin-4-yl)-5-phenyl-thiophene-2-carboxylic acid] it is 3 to 10 µM.

The molecule `CN1CCC(c2cc(-c3ccccc3)sc2C(=O)O)=C(c2ccc(Cl)cc2)C1` [Example 208, 3-[5-(4-Chloro-phenyl)-1-methyl-1,2,3,6-tetrahydro-pyridin-4-yl]-5-phenyl-thiophene-2-carboxylic acid] had an IC50 in assay [1] greater than 10 µM.

In the case of `CN1CCC(c2cc(-c3ccccc3)sc2C(=O)O)=C(C2CCCC2)C1` [Example 207, 3-(5-Cyclopentyl-1-methyl-1,2,3,6-tetrahydro-pyridin-4-yl)-5-phenyl-thiophene-2-carboxylic acid], the IC50 in assay [1] was 3 to 10 µM. Still for that read-out and setting: the figure for `Cc1cc(-c2cc(C3=C(C4CCC(C)CC4)CCN(Cc4cnn(C)c4)C3)c(C(=O)O)s2)ccc1NC(=O)c1cscn1` (centres unmarked) [Example 199, 3-(1-((1-methyl-1H-pyrazol-4-yl)methyl)-4-(4-methylcyclohexyl)-1,2,5,6-tetrahydropyridin-3-yl)-5-(3-methyl-4-(thiazole-4-carboxamido)phenyl)thiophene-2-carboxylic acid] is less than 3 µM; for `CC1CCC(C2=C(c3cc(-c4ccc(NC(=O)c5cscn5)c(F)c4)sc3C(=O)O)CN(C)CC2)CC1` (centres unmarked) [Example 198] it is less than 3 µM. Take `CN1CCC(c2cc(-c3ccccc3)sc2C(=O)O)=C(C2CCCCCC2)C1` [Example 206, 3-(5-Cycloheptyl-1-methyl-1,2,3,6-tetrahydro-pyridin-4-yl)-5-phenyl-thiophene-2-carboxylic acid]: the concentration for half-maximal inhibition (IC50) in assay [1] is less than 3 µM. Consider `CN1CCC(C2CCC(F)(F)CC2)=C(c2cc(-c3ccc(NC(=O)c4cscn4)cc3)sc2C(=O)O)C1` [Example 200, 3-(4-(4,4-difluorocyclohexyl)-1-methyl-1,2,5,6-tetrahydropyridin-3-yl)-5-(4-(thiazole-4-carboxamido)phenyl)thiophene-2-carboxylic acid], for which, in assay [1], the IC50 was less than 3 µM. Also, in the assay with HCV1b replicon (Table 1), the EC50 was in the range of 3 to 10 µM. On to `COc1ccn2nc(-c3ccc(-c4cc(C5=C(C6CCC(C)CC6)CN(C)CC5)c(C(=O)O)s4)cc3)cc2n1` (centres unmarked) [Example 184, 5-(4-(5-methoxypyrazolo[1,5-a]pyrimidin-2-yl)phenyl)-3-(1-methyl-5-(4-methylcyclohexyl)-1,2,3,6-tetrahydropyridin-4-yl)thiophene-2-carboxylic acid], for which the IC50 in assay [1] was less than 3 µM.

Source of the values: patent publication US10426762B2, “Inhibitors of hepatitis C virus polymerase” (COCRYSTAL DISCOVERY, INC., priority 2012, dated 2019).
